# Laboratory results reported in the supplement of paper PMC6045584.
# ± gives the standard deviation of the averaged measurements.
# Assays:
# [1] = compound: CNCc1ccc(-c2[nH]c3cc(F)cc4c3c2CCNC4=O)cc1; assay: surviving fraction relative to DMSO-only wells; higher = less growth inhibition; details: exposure time: 5 days
# Summary of the method: (§1)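 Viability values are CellTiter-Glo luminescence readings, given as surviving fraction against the median of DMSO-only wells. The readings were taken after 10 minutes at room temperature, following five days of continuous exposure to inhibitors at 0.5, 1, 5, 10, 50, 100, 500 and 1000 nM that began 24 hours after log-phase tumour cell lines were seeded at 250–500 cells per well in 384-well plates. Every line was screened three times and kept only if replicate Pearson r >0.7 and median Z' >0.3.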
# XAV-939 [2] = compound: T1, Oc1nc(-c2ccc(C(F)(F)F)cc2)nc2c1CSCC2 [XAV-939]; assay: as above; details: exposure time: 5 days
# Summary of the method: as §1
# [3] = compound: CNCc1ccc(-c2[nH]c3cc(F)cc4c3c2CCNC4=O)cc1; assay: area under dose-response curve of surviving fraction (unscaled, Aref=0) (surviving fraction x log10(nM)); higher = more resistant; details: exposure time: 5 days; dose range 0.5-1000 nM
# Summary of the method: (§2)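 Tumour cell lines in 384-well plates were exposed to eight inhibitor concentrations, from 0.5 to 1000 nM, for five days, and viability was read by CellTiter-Glo luminescence in three screens per line. Signals were normalised to DMSO-only wells, and 3-parameter logistic regression in the drc R package fitted dose-response survival curves to the surviving fractions. Area under the curve is given as the unscaled activity area. That area is taken over log10 dose with Aref = 0.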
# CRIZOTINIB = compound: C[C@@H](Oc1cc(-c2cnn(C3CCNCC3)c2)cnc1N)c1c(Cl)ccc(F)c1Cl [CRIZOTINIB]; assay: as above; details: exposure time: 5 days; dose range 0.5-1000 nM
# Summary of the method: as §2
# XAV-939 [4] = compound: T1, XAV-939; assay: as above; details: exposure time: 5 days; dose range 0.5-1000 nM
# Summary of the method: as §2
# OLAPARIB = compound: O=C(c1cc(Cc2n[nH]c(=O)c3ccccc23)ccc1F)N1CCN(C(=O)C2CC2)CC1 [OLAPARIB]; assay: as above; details: exposure time: 5 days; dose range 0.5-1000 nM
# Summary of the method: as §2
Test System,surviving fraction ([1]; 0.5 nM),surviving fraction ([1]; 1 nM),surviving fraction ([1]; 5 nM),surviving fraction ([1]; 10 nM),surviving fraction ([1]; 50 nM),surviving fraction ([1]; 100 nM),surviving fraction ([1]; 500 nM),surviving fraction ([1]; 1000 nM),surviving fraction (XAV-939 [2]; 0.5 nM),surviving fraction (XAV-939 [2]; 1 nM),surviving fraction (XAV-939 [2]; 5 nM),surviving fraction (XAV-939 [2]; 10 nM),surviving fraction (XAV-939 [2]; 50 nM),surviving fraction (XAV-939 [2]; 100 nM),surviving fraction (XAV-939 [2]; 500 nM),surviving fraction (XAV-939 [2]; 1000 nM),area under dose-response curve [3],area under dose-response curve (CRIZOTINIB),area under dose-response curve (XAV-939 [4]),area under dose-response curve (OLAPARIB)
HCT15 LARGE INTESTINE,1.03 ± 0.075,1.01 ± 0.16,1.05 ± 0.13,1.05 ± 0.051,0.982 ± 0.1,0.988 ± 0.093,0.996 ± 0.095,1.03 ± 0.13,1.03 ± 0.058,1.07 ± 0.031,1.04 ± 0.034,1.07 ± 0.059,0.932 ± 0.054,1.03 ± 0.03,0.961 ± 0.064,0.973 ± 0.04,3.36,3.26,3.27,
HELA CERVIX,1.09 ± 0.093,1.09 ± 0.08,1.08 ± 0.054,1.03 ± 0.07,1.16 ± 0.11,1.12 ± 0.16,1.14 ± 0.079,1.09 ± 0.071,1.02 ± 0.066,1.07 ± 0.033,1.06 ± 0.025,1.08 ± 0.036,1.09 ± 0.059,1.16 ± 0.028,1.09 ± 0.053,1.1 ± 0.049,3.62,3.42,3.57,3.66
HOS BONE,1.02 ± 0.017,1.05 ± 0.034,1.01 ± 0.015,1.029 ± 0.01,1.01 ± 0.023,0.994 ± 0.022,1.02 ± 0.019,0.9833 ± 0.0055,1.01 ± 0.028,1.05 ± 0.016,1.02 ± 0.013,1.04 ± 0.0066,1.04 ± 0.029,1.04 ± 0.011,0.996 ± 0.02,1.05 ± 0.065,3.35,3.13,3.4,3.37
HOSMNG BONE,0.936 ± 0.055,0.988 ± 0.083,0.94 ± 0.14,0.857 ± 0.03,0.838 ± 0.032,0.885 ± 0.089,0.929 ± 0.11,0.954 ± 0.045,0.922 ± 0.14,1.01 ± 0.11,0.947 ± 0.077,0.934 ± 0.1,0.948 ± 0.17,0.944 ± 0.089,0.934 ± 0.069,1.06 ± 0.094,3.01,2.38,3.14,3.29
HSSYII SYNOVIAL,0.918 ± 0.023,0.915 ± 0.074,0.881 ± 0.028,0.861 ± 0.027,0.696 ± 0.055,0.653 ± 0.041,0.473 ± 0.05,0.343 ± 0.021,0.942 ± 0.026,0.901 ± 0.035,0.994 ± 0.043,0.976 ± 0.011,0.961 ± 0.013,0.938 ± 0.031,0.667 ± 0.034,0.617 ± 0.038,2.44,2.85,3.04,2.67
HT1080 SOFT TISSUE,1.04 ± 0.019,1.01 ± 0.014,0.983 ± 0.04,0.968 ± 0.018,0.899 ± 0.018,0.869 ± 0.037,0.818 ± 0.047,0.671 ± 0.068,1.05 ± 0.018,1.04 ± 0.05,1.03 ± 0.024,1.02 ± 0.023,0.971 ± 0.0036,0.872 ± 0.0099,0.579 ± 0.0091,0.476 ± 0.0083,3.02,3.28,2.94,2.92
JIMT1 BREAST,0.948 ± 0.055,0.945 ± 0.052,0.98 ± 0.067,0.9615 ± 0.0036,0.881 ± 0.045,0.885 ± 0.05,0.864 ± 0.031,0.856 ± 0.054,1 ± 0.013,1.03 ± 0.027,0.9983 ± 0.008,0.995 ± 0.031,1 ± 0.05,1.04 ± 0.025,0.934 ± 0.032,0.943 ± 0.0033,3.03,3.18,3.26,3.01
JURKAT HAEMATOPOIETIC AND LYMPHOID TISSUE,1.09 ± 0.018,1.1 ± 0.029,1.04 ± 0.019,1.02 ± 0.024,1.01 ± 0.049,1.01 ± 0.029,0.979 ± 0.021,0.916 ± 0.047,1.03 ± 0.011,1.051 ± 0.0042,1.04 ± 0.013,1.03 ± 0.03,0.9907 ± 0.0059,1 ± 0.018,0.987 ± 0.02,0.981 ± 0.029,3.28,2.68,3.29,
KPD BONE,0.975 ± 0.058,0.983 ± 0.022,1.13 ± 0.15,1.05 ± 0.028,0.956 ± 0.032,0.95 ± 0.022,0.876 ± 0.022,0.732 ± 0.046,0.937 ± 0.07,0.981 ± 0.061,0.999 ± 0.048,0.995 ± 0.043,0.992 ± 0.058,0.926 ± 0.035,0.883 ± 0.035,0.828 ± 0.061,3.18,3.08,3.17,3.12
LM7 BONE,0.912 ± 0.043,0.965 ± 0.015,0.986 ± 0.06,1.01 ± 0.016,0.752 ± 0.042,0.679 ± 0.1,0.497 ± 0.013,0.451 ± 0.0082,0.964 ± 0.078,1.03 ± 0.062,1.05 ± 0.075,1.131 ± 0.011,1.08 ± 0.11,1.08 ± 0.048,0.915 ± 0.068,0.877 ± 0.045,2.67,3.05,3.45,2.84
LNCAP PROSTATE,1.09 ± 0.059,1.14 ± 0.038,1.01 ± 0.095,0.907 ± 0.093,1.02 ± 0.047,0.946 ± 0.013,0.969 ± 0.056,0.73 ± 0.057,0.85 ± 0.076,0.83 ± 0.11,0.94 ± 0.058,0.921 ± 0.054,0.797 ± 0.071,0.936 ± 0.1,0.741 ± 0.12,0.713 ± 0.14,,2.91,2.79,3.27
MCF7 BREAST,0.923 ± 0.057,0.927 ± 0.072,0.921 ± 0.086,0.918 ± 0.084,0.951 ± 0.058,0.93 ± 0.081,0.865 ± 0.0098,0.924 ± 0.043,0.941 ± 0.062,0.953 ± 0.07,0.954 ± 0.033,0.937 ± 0.023,1.01 ± 0.069,1.05 ± 0.041,1.03 ± 0.054,1.01 ± 0.061,3.04,3.04,3.19,3.07
OS25HAL BONE,0.98 ± 0.029,1.1 ± 0.024,1.017 ± 0.01,1.01 ± 0.032,0.954 ± 0.034,1.01 ± 0.052,1.003 ± 0.0071,0.98 ± 0.039,1.01 ± 0.026,1.04 ± 0.015,1.03 ± 0.014,0.965 ± 0.034,1.01 ± 0.013,1.03 ± 0.029,0.872 ± 0.06,0.893 ± 0.075,,3.21,3.23,3.36
SUM149.B1*.S BREAST,1.12 ± 0.023,1.1 ± 0.022,1.07 ± 0.045,1.1 ± 0.045,1.01 ± 0.04,1.02 ± 0.033,0.94 ± 0.053,1 ± 0.056,0.968 ± 0.033,1.07 ± 0.059,1.04 ± 0.047,1.06 ± 0.082,0.996 ± 0.045,1.06 ± 0.033,1.01 ± 0.03,1 ± 0.026,,3.8,3.73,
SUM159 BREAST,1.09 ± 0.024,1.1 ± 0.027,1.09 ± 0.035,1.07 ± 0.02,1.06 ± 0.044,1.04 ± 0.0053,1.06 ± 0.019,1.05 ± 0.018,1.17 ± 0.32,1.15 ± 0.19,1.14 ± 0.21,1.16 ± 0.22,1.12 ± 0.2,1.13 ± 0.18,1.09 ± 0.16,1.08 ± 0.11,3.53,3.63,,3.45
YAMATO SYNOVIAL,1.32 ± 0.043,1.35 ± 0.12,1.28 ± 0.066,1.3 ± 0.1,0.949 ± 0.13,0.982 ± 0.11,0.794 ± 0.022,0.811 ± 0.13,1.28 ± 0.22,1.22 ± 0.057,1.26 ± 0.095,1.34 ± 0.18,1.3 ± 0.049,1.24 ± 0.053,1 ± 0.095,1.09 ± 0.037,,2.3,4.04,
